In article PMC3265452 (PLoS Neglected Tropical Diseases, 2012):
Structures can show the parent of a compound that is named as a salt.

The compounds below were run against AaDOP2 (Aedes aegypti, UniProt H6D5H2) (assay: AaDOP2 antagonist screen of the LOPAC1280 library (HEK-CRELuc-Aadop2 cells, luminescence)). Conditions: not given.
Type: cell-based

Chain of AaDOP2 (H6D5H2 1-476): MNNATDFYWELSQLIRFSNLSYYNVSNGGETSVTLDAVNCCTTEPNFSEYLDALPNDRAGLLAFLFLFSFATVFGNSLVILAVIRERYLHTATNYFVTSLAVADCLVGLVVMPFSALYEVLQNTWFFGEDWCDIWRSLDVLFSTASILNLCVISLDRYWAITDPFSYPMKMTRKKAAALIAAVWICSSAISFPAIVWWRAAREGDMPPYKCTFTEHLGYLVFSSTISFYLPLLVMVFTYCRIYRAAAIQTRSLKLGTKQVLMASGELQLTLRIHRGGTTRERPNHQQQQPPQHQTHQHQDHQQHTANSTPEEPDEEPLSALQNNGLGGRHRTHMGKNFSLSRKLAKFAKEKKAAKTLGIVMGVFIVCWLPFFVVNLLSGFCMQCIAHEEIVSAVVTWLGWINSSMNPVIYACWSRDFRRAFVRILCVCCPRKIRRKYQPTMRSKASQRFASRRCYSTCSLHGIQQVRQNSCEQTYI

Structure (SMILES)	Compound effect (percent receptor signaling in presence of test compound, relative lux units relative to the SCH23390 control)
Cc1ccccc1CNc1ncnc2c1ncn2[C@@H]1O[C@H](CO)[C@@H](O)[C@H]1O [Compound 834, Metrifudil]	96
O=C(O)c1cccnc1Nc1cccc(C(F)(F)F)c1 [Compound 837, Niflumic acid]	90
CS(=O)(=O)Nc1ccc([N+](=O)[O-])cc1Oc1ccccc1 [Compound 838, Nimesulide]	88
O=C(CCNNC(=O)c1ccncc1)NCc1ccccc1 [Compound 839, Nialamide]	87
CN1Cc2c(N)cccc2C(c2ccccc2)C1 (centres unmarked) [Compound 840, Nomifensine maleate]	42
Cl.Cl.Oc1ccc2c3c1O[C@H]1c4[nH]c5c(c4C[C@@]4(O)[C@@H](C2)N(CC2CC2)CC[C@]314)C[C@@]1(O)[C@H]2Cc3ccc(O)c4c3[C@@]1(CCN2CC1CC1)[C@H]5O4 [Compound 841, nor-Binaltorphimine dihydrochloride]	98
CN(C)C(=O)Oc1cccc([N+](C)(C)C)c1 [Compound 842, Neostigmine bromide]	100
CC1(C)CCC(NC(=O)[C@@H](N)CCC(=O)O)CC1 [Compound 843, CR 2249]	92
O=[N+]([O-])c1ccc(CSc2ncnc3c2ncn3[C@@H]2O[C@H](CO)[C@@H](O)[C@H]2O)cc1 [Compound 844, S-(4-Nitrobenzyl)-6-thioinosine]	93
O=C1CC[C@@]2(O)[C@H]3Cc4ccc(O)c5c4[C@@]2(CCN3CC2CC2)[C@H]1O5 [Compound 845, Naltrexone hydrochloride]	101
N[C@@H](CCC(=O)N[C@@H](CSN=O)C(=O)NCC(=O)O)C(=O)O [Compound 850, S-Nitrosoglutathione]	100
O=C(O)/C=C1\CCCc2ccccc2C1O (centres unmarked) [Compound 851, NCS-382]	97
CCn1cc(C(=O)[O-])c(=O)c2ccc(C)nc21.[Na+] [Compound 852, Nalidixic acid sodium]	99
Oc1ccc2c3c1O[C@H]1[C@@H](O)CC[C@@]4(O)[C@@H](C2)N(CC2CCC2)CC[C@]314 [Compound 853, Nalbuphine hydrochloride]	96
O=C(O)c1cc([N+](=O)[O-])ccc1NCCCc1ccccc1 [Compound 854, 5-Nitro-2-(3-phenylpropylamino)benzoic acid]	99
CN1CCC[C@H]1c1cccnc1.O=C(O)C(O)C(O)C(=O)O.O=C(O)C(O)C(O)C(=O)O [Compound 857, (-)-Nicotine hydrogen tartrate salt]	92
N=C(NCCC[C@H](N)C(=O)O)N[N+](=O)[O-] [Compound 858, NG-Nitro-L-arginine]	95
c1ccc2c(CC3=NCCN3)cccc2c1 [Compound 859, Naphazoline hydrochloride]	90
O=C(O)CC[N+](=O)[O-] [Compound 860, 3-Nitropropionic acid]	91

Structure (SMILES)	Compound effect (percent receptor signaling in presence of test compound, relative lux units relative to the SCH23390 control)
CNCCC=C1c2ccccc2CCc2ccccc21 [Compound 863, Nortriptyline hydrochloride]	4
COC(=O)C1=C(C)NC(C)=C(C(=O)OCCN(C)Cc2ccccc2)C1c1cccc([N+](=O)[O-])c1 (centres unmarked) [Compound 865, Nicardipine hydrochloride]	76
COC(=O)C1=C(C)NC(C)=C(C(=O)OC)C1c1ccccc1[N+](=O)[O-] [Compound 866, Nifedipine]	78
C=CCN1CC[C@]23c4c5ccc(O)c4O[C@H]2C(=O)CC[C@@]3(O)[C@H]1C5 [Compound 867, Naloxone hydrochloride]	75
O=[N+]([O-])c1cccc2cn[nH]c12 [Compound 868, 7-Nitroindazole]	78
C[N+](C)(C)CCC(=O)c1cccc2ccccc12.[I-] [Compound 870, 2-(alpha-Naphthoyl)ethyltrimethylammonium iodide]	74
CC1(C)NC(=O)N(c2ccc([N+](=O)[O-])c(C(F)(F)F)c2)C1=O [Compound 872, Nilutamide]	93
O=C(Nc1cccc(C(=O)Nc2ccc(S(=O)(=O)O)c3cc(S(=O)(=O)O)cc(S(=O)(=O)O)c23)c1)Nc1cccc(C(=O)Nc2ccc(S(=O)(=O)O)c3cc(S(=O)(=O)O)cc(S(=O)(=O)O)c23)c1 [Compound 873, NF 023]	94
Cc1ncc(CNC(=O)N(CCCl)N=O)c(N)n1 [Compound 874, Nimustine hydrochloride]	88
O=C1OC(=O)[C@H]2[C@@H]1[C@@H]1CC[C@H]2O1 [Compound 875, Norcantharidin]	76
COc1ccc2c(c1OC)C(=O)O[C@@H]2[C@H]1c2c(cc3c(c2OC)OCO3)CCN1C.Cl [Compound 876, Noscapine hydrchloride]	78
CN1CCCC1c1cccnc1.Cc1ccc(C(=O)OC(C(=O)O)C(OC(=O)c2ccc(C)cc2)C(=O)O)cc1 (stereo not drawn) [Compound 877, (+)-Nicotine (+)-di-p-toluoyl tartrate]	80
Oc1ccc2c3c1O[C@H]1c4[nH]c5ccccc5c4C[C@@]4(O)[C@@H](C2)N(CC2CC2)CC[C@]314 [Compound 878, Naltrindole hydrochloride]	81
CCOC(=O)C1=C(C)NC(C)=C(C(=O)OC)C1c1cccc([N+](=O)[O-])c1 (centres unmarked) [Compound 881, Nitrendipine]	103
COCCOC(=O)C1=C(C)NC(C)=C(C(=O)OC(C)C)C1c1cccc([N+](=O)[O-])c1 (centres unmarked) [Compound 882, Nimodipine]	102
CNCCC(Oc1ccccc1OC)c1ccccc1 (centres unmarked) [Compound 883, Nisoxetine hydrochloride]	84
CC(CCc1ccccc1)NC(C)C(O)c1ccc(O)cc1 (centres unmarked) [Compound 884, Nylidrin hydrochloride]	86
Cn1cnc2c(NC3CCCC3)ncnc21 [Compound 885, N6-Cyclopentyl-9-methyladenine]	105

Same assay, conditions: 10 µM compound, 300 nM dopamine, 2 hr; hit = compound effect <20

Structure (SMILES)	Compound effect (percent receptor signaling in presence of test compound, relative lux units relative to the SCH23390 control)
COc1ccccc1N1CCN(CCN(C(=O)c2ccc(F)cc2)c2ccccn2)CC1.Cl.Cl [Compound 835, p-MPPF dihydrochloride]	81%
Br.COc1ccccc1N1CCN(CCCCN2C(=O)c3ccccc3C2=O)CC1 [Compound 848, NAN-190 hydrobromide]	42%
O=C(Nc1cc(C(=O)Nc2ccc(S(=O)(=O)[O-])cc2S(=O)(=O)[O-])cc(C(=O)Nc2ccc(S(=O)(=O)[O-])cc2S(=O)(=O)[O-])c1)Nc1cc(C(=O)Nc2ccc(S(=O)(=O)[O-])cc2S(=O)(=O)[O-])cc(C(=O)Nc2ccc(S(=O)(=O)[O-])cc2S(=O)(=O)[O-])c1.[Na+].[Na+].[Na+].[Na+].[Na+].[Na+].[Na+].[Na+] [Compound 855, NF449 octasodium salt]	112%
CC(Cc1ccc(O)c(O)c1)C(C)Cc1ccc(O)c(O)c1 (centres unmarked) [Compound 856, Nordihydroguaiaretic acid from Larrea divaricata (creosote bush)]	64%
COC(=O)[C@@H](N)CCCN=C(N)N[N+](=O)[O-].Cl [Compound 861, NG-Nitro-L-arginine methyl ester hydrochloride]	96%
NC(=O)C1=CN([C@@H]2O[C@H](COP(=O)(O)OP(=O)(O)OC[C@H]3O[C@@H](n4cnc5c(N)ncnc54)[C@H](OP(=O)(O)O)[C@@H]3O)[C@@H](O)[C@H]2O)C=CC1 [Compound 864, NADPH tetrasodium]	92%
O=Nc1ccc2oc(=O)ccc2c1 [Compound 871, 6-Nitroso-1,2-benzopyrone]	93%
Cl.O=C(CCCN1CCC2(CC1)C(=O)N(CCc1ccc(N=C=S)cc1)CN2c1ccccc1)c1ccc(F)cc1 [Compound 879, N-(p-Isothiocyanatophenethyl)spiperone hydrochloride]	83%
Cl.O=C(O)C1=CCCN(CCON=C(c2ccccc2)c2ccccc2)C1 [Compound 880, NO-711 hydrochloride]	81%

Same assay, conditions: read-out: % of the SCH23390 effect (percent inhibition of receptor response relative to the SCH23390 control)

Structure (SMILES)	inhibition at 10 µM
CNCCC=C1c2ccccc2CCc2ccccc21 [Compound 863, Nortriptyline hydrochloride]	96%
